# Biological target: T1, BTK (Homo sapiens, UniProt Q06187)
# T1 construct: The GM01501.3 cell line endogenously expresses BTK with a HiBiT fusion tag via CRISPR knock-in at its C-terminal region; endogenous in cells; host or cells: GM01501.3 (GM01501 cells engineered by CRISPR knock-in of HiBiT at the BTK locus)
# Experiment: BTK degradation assay using the HiBiT Method (Nano-Glo HiBiT Lytic Assay, GM01501.3 cells)
# Type: cell-based
# Conditions: HiBiT Degradation on GM01501.3 BTK @ 6 hours
# Procedure, shortened: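 CRISPR knock-in GM01501.3 cells expressing endogenous BTK with C-terminal HiBiT tag, treated 6 h at 37 °C with compounds, 11-point half-log titration from 10 μM top, duplicates. Remaining BTK quantified by Nano-Glo HiBiT lytic luminescence versus DMSO controls; DC50 reported.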
# T1 sequence (Q06187 whole entry, the tested form may be a part): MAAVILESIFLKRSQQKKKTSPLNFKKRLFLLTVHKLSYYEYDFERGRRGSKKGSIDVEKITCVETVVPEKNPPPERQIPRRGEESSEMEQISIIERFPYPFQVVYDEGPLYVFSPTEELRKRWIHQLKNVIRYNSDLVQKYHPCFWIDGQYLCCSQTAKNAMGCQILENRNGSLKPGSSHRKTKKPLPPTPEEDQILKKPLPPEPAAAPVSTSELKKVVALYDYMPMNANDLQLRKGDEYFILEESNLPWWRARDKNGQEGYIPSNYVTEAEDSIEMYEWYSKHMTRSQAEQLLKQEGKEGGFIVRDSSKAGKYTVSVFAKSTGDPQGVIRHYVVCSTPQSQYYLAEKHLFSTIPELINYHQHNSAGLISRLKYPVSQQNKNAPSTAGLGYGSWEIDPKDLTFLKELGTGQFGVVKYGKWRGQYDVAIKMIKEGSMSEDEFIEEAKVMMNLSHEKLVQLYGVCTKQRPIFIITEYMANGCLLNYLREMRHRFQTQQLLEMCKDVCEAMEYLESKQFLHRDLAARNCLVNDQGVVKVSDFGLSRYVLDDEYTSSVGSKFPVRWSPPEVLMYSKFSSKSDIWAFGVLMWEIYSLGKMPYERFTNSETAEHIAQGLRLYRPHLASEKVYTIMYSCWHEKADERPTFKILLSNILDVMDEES
row,SMILES,DC50 [nM]
1,"CC(C)(C)c1nc(C(=O)NCc2ccc(-c3ncnn4cc(-c5ccc(CN6CCCC(Cc7ccc(OC8CCC(=O)NC8=O)cc7)C6)cn5)cc34)cc2F)no1 (centres unmarked) [Example 227, 5-(tert-butyl)-N-(4-(6-(5-((3-(4-((2,6-dioxopiperidin-3-yl)oxy)benzyl)piperidin-1-yl)methyl)pyridin-2-yl)pyrrolo[2,1-f][1,2,4]triazin-4-yl)-2-fluorobenzyl)-1,2,4-oxadiazole-3-carboxamide]",100 to 500
2,"Cc1cc(-c2ncnn3cc(-c4ccc(CN5CCC(c6ccc(NC7CCC(=O)NC7=O)cc6)CC5)cc4)cc23)ccc1CNC(=O)c1ccc(F)cc1 (centres unmarked) [Example 64, N-[[4-[6-[4-[[4-[4-[(2,6-dioxo-3-piperidyl)amino]phenyl]-1-piperidyl]methyl]phenyl]pyrrolo[2,1-f][1,2,4]triazin-4-yl]-2-methyl-phenyl]methyl]-4-fluoro-benzamide]",< 100
3,"Cc1cc(-c2ncnn3cc(-c4cnn(CCN5CCN(c6ccc(C7CCC(=O)NC7=O)cn6)CC5)c4)cc23)ccc1CNC(=O)c1noc(C(C)(C)C)n1 (centres unmarked) [Example 298, 5-(tert-butyl)-N-(4-(6-(1-(2-(4-(5-(2,6-dioxopiperidin-3-yl)pyridin-2-yl)piperazin-1-yl)ethyl)-1H-pyrazol-4-yl)pyrrolo[2,1-f] [1,2,4]triazin-4-yl)-2-methylbenzyl)-1,2,4-oxadiazole-3-carboxamide]",< 100
4,"Cc1cc(-c2ncnn3cc(CCN4CCC(c5ccc6c(N7CCC(=O)NC7=O)cnn6c5)CC4)cc23)ccc1CNC(=O)c1noc(C(C)(C)C)n1 [Example 270, 5-(tert-butyl)-N-(4-(6-(2-(4-(3-(2,4-dioxotetrahydropyrimidin-1(2H)-yl)pyrazolo[1,5-a]pyridin-6-yl)piperidin-1-yl)ethyl)pyrrolo[2,1-f][1,2,4]triazin-4-yl)-2-methylbenzyl)-1,2,4-oxadiazole-3-carboxamide]",< 100
5,"CC(C)(C)c1nc(C(=O)NCc2ccc(-c3ncnn4cc(CCC(F)CN5CCC(c6ccc(NC7CCC(=O)NC7=O)cc6)CC5)cc34)cc2F)no1 (centres unmarked) [Example 170, 5-tert-butyl-N-[[4-[6-[4-[4-[4-[(2,6-dioxo-3-piperidyl)amino]phenyl]-1-piperidyl]-3-fluoro-butyl]pyrrolo[2,1-f][1,2,4]triazin-4-yl]-2-fluoro-phenyl]methyl]-1,2,4-oxadiazole-3-carboxamide]",< 100
6,"COc1cc(CN2CCC(c3ccc(NC4CCC(=O)NC4=O)cc3)CC2)ccc1-c1cc2c(-c3ccc(CNC(=O)c4noc(C(C)(C)C)n4)c(C)c3)ncnn2c1 (centres unmarked) [Example 21, 5-tert-butyl-N-[[4-[6-[4-[[4-[4-[(2,6-dioxo-3-piperidyl)amino]phenyl]-1-piperidyl]methyl]-2-methoxy-phenyl]pyrrolo[2,1-f][1,2,4]triazin-4-yl]-2-methyl-phenyl]methyl]-1,2,4-oxadiazole-3-carboxamide]",< 100
7,"Cc1cc(-c2ncnn3cc(-c4ccc(OCCN5CCC(c6ccc(OC7CCC(=O)NC7=O)cc6)CC5)cc4)cc23)ccc1CNC(=O)c1noc(C(C)(C)C)n1 (centres unmarked) [Example 107, 5-tert-butyl-N-[[4-[6-[4-[2-[4-[4-[(2,6-dioxo-3-piperidyl)oxy]phenyl]-1-piperidyl]ethoxy]phenyl]pyrrolo[2,1-f][1,2,4]triazin-4-yl]-2-methyl-phenyl]methyl]-1,2,4-oxadiazole-3-carboxamide]",< 100
8,"Cc1cc(-c2ncnn3cc(-c4ccn5cc(CN6CCC(c7ccc(C8CCC(=O)NC8=O)cc7)CC6)nc5c4)cc23)ccc1CNC(=O)c1noc(C(C)(C)C)n1 (centres unmarked) [Example 211, 5-(tert-butyl)-N-(4-(6-(2-((4-(4-(2,6-dioxopiperidin-3-yl)phenyl)piperidin-1-yl)methyl)imidazo[1,2-a]pyridin-7-yl)pyrrolo[2,1-f][1,2,4]triazin-4-yl)-2-methylbenzyl)-1,2,4-oxadiazole-3-carboxamide]",< 100

# Results, then the molecule that gave them:
row,DC50 [nM],SMILES
1,< 100,"Cc1cc(-c2ncnn3cc(-c4ccc5c(c4)CCN(CCc4ccc(NC6CCC(=O)NC6=O)cc4)C5)cc23)ccc1CNC(=O)c1noc(C(C)(C)C)n1 (centres unmarked) [Example 56, 5-tert-butyl-N-[[4-[6-[2-[2-[4-[(2,6-dioxo-3-piperidyl)amino]phenyl]ethyl]-3,4-dihydro-1H-isoquinolin-6-yl]pyrrolo[2,1-f][1,2,4]triazin-4-yl]-2-methyl-phenyl]methyl]-1,2,4-oxadiazole-3-carboxamide]"
2,< 100,"Cc1cc(-c2ncnn3cc(CCN4CCC(c5ccc6c(N7CCC(=O)NC7=O)nn(C)c6c5)CC4)cc23)ccc1CNC(=O)c1noc(C2(C)CCC2)n1 [Example 257, N-(4-(6-(2-(4-(3-(2,4-dioxotetrahydropyrimidin-1(2H)-yl)-1-methyl-1H-indazol-6-yl)piperidin-1-yl)ethyl)pyrrolo[2,1-f][1,2,4]triazin-4-yl)-2-methylbenzyl)-5-(1-methylcyclobutyl)-1,2,4-oxadiazole-3-carboxamide]"
3,< 100,"CC(C)(C)c1nc(C(=O)NCc2ccc(-c3ncnn4cc(CCCCN5CCC(c6ccc(NC7CCC(=O)NC7=O)nc6)CC5)cc34)cc2F)no1 (centres unmarked) [Example 138, 5-tert-butyl-N-[[4-[6-[4-[4-[6-[(2,6-dioxo-3-piperidyl)amino]-3-pyridyl]-1-piperidyl]butyl]pyrrolo[2,1-f][1,2,4]triazin-4-yl]-2-fluoro-phenyl]methyl]-1,2,4-oxadiazole-3-carboxamide]"
4,< 100,"Cc1cc(-c2ncnn3cc(-c4ccc(CCN5CCC(c6ccc(NC7CCC(=O)NC7=O)cc6)CC5)cc4)cc23)ccc1CNC(=O)c1noc(C(C)(C)C)n1 (centres unmarked) [Example 53, 5-tert-butyl-N-[[4-[6-[4-[2-[4-[4-[(2,6-dioxo-3-piperidyl)amino]phenyl]-1-piperidyl]ethyl]phenyl]pyrrolo[2,1-f][1,2,4]triazin-4-yl]-2-methyl-phenyl]methyl]-1,2,4-oxadiazole-3-carboxamide]"
5,< 100,"Cc1cc(-c2ncnn3cc(-c4ccc(CN5CCC(c6ccc(NC7CCC(=O)NC7=O)cn6)CC5)cc4)cc23)ccc1CNC(=O)c1noc(C(C)(C)C)n1 (centres unmarked) [Example 20, 5-tert-butyl-N-[[4-[6-[4-[[4-[5-[(2,6-dioxo-3-piperidyl)amino]-2-pyridyl]-1-piperidyl]methyl]phenyl]pyrrolo[2,1-f][1,2,4]triazin-4-yl]-2-methyl-phenyl]methyl]-1,2,4-oxadiazole-3-carboxamide]"
6,< 100,"Cc1cc(-c2ncnn3cc(OC[C@@H](F)CN4CCC(c5ccc6c(N7CCC(=O)NC7=O)nn(C)c6c5)CC4)cc23)ccc1CNC(=O)c1noc(C(C)(C)C)n1 [Example 295, (S)-5-(tert-butyl)-N-(4-(6-(3-(4-(3-(2,4-dioxotetrahydropyrimidin-1(2H)-yl)-1-methyl-1H-indazol-6-yl)piperidin-1-yl)-2-fluoropropoxy)pyrrolo[2,1-f][1,2,4]triazin-4-yl)-2-methylbenzyl)-1,2,4-oxadiazole-3-carboxamide]"
7,< 100,"Cc1cc(-c2ncnn3cc(-c4ccc(CN5CCC(c6ccc(NC7CCC(=O)NC7=O)cc6)CC5)cc4)cc23)ccc1CNC(=O)c1ncc(C(C)C)cn1 (centres unmarked) [Example 94, N-[[4-[6-[4-[[4-[4-[(2,6-dioxo-3-piperidyl)amino]phenyl]-1-piperidyl]methyl]phenyl]pyrrolo[2,1-f][1,2,4]triazin-4-yl]-2-methyl-phenyl]methyl]-5-isopropyl-pyrimidine-2-carboxamide]"
8,< 100,"Cc1cc(-c2ncnn3cc(CCN4CCC(c5ccc(OC6CCC(=O)NC6=O)cc5)CC4)cc23)ccc1CNC(=O)c1noc(C(C)(C)C)n1 (centres unmarked) [Example 118, 5-tert-butyl-N-[[4-[6-[2-[4-[4-[(2,6-dioxo-3-piperidyl)oxy]phenyl]-1-piperidyl]ethyl]pyrrolo[2,1-f][1,2,4]triazin-4-yl]-2-methyl-phenyl]methyl]-1,2,4-oxadiazole-3-carboxamide]"
9,< 100,"Cc1cc(-c2ncnn3cc(-c4cccc(CN5CCC(c6ccc7c(N8CCC(=O)NC8=O)nn(C)c7c6)CC5)n4)cc23)ccc1CNC(=O)c1noc(C(C)(C)C)n1 [Example 248, 5-(tert-butyl)-N-(4-(6-(6-((4-(3-(2,4-dioxotetrahydropyrimidin-1(2H)-yl)-1-methyl-1H-indazol-6-yl)piperidin-1-yl)methyl)pyridin-2-yl)pyrrolo[2,1-f][1,2,4]triazin-4-yl)-2-methylbenzyl)-1,2,4-oxadiazole-3-carboxamide]"
10,< 100,"Cc1cc(-c2ncnn3cc(-c4ccc(CCN5CCC(c6ccc(C7CCC(=O)NC7=O)cc6)CC5)cc4)cc23)ccc1CNC(=O)c1noc(C(C)(C)C)n1 (centres unmarked) [Example 52, 5-tert-butyl-N-[[4-[6-[4-[2-[4-[4-(2,6-dioxo-3-piperidyl)phenyl]-1-piperidyl]ethyl]phenyl]pyrrolo[2,1-f][1,2,4]triazin-4-yl]-2-methyl-phenyl]methyl]-1,2,4-oxadiazole-3-carboxamide]"
11,< 100,"COc1cc(-c2ncnn3cc(-c4ccc(CN5CCC(c6ccc(C7CCC(=O)NC7=O)cc6)CC5)cc4)cc23)ccc1CNC(=O)c1noc(C(C)(C)C)n1 (centres unmarked) [Example 43, 5-tert-butyl-N-[[4-[6-[4-[[4-[4-(2,6-dioxo-3-piperidyl)phenyl]-1-piperidyl]methyl]phenyl]pyrrolo[2,1-f][1,2,4]triazin-4-yl]-2-methoxy-phenyl]methyl]-1,2,4-oxadiazole-3-carboxamide]"
12,< 100,"COc1ccc(C(=O)NCc2ccc(-c3ncnn4cc(-c5ccc(CN6CCC(c7ccc(NC8CCC(=O)NC8=O)cc7)CC6)cc5)cc34)cc2C)nc1 (centres unmarked) [Example 93, N-[[4-[6-[4-[[4-[4-[(2,6-dioxo-3-piperidyl)amino]phenyl]-1-piperidyl]methyl]phenyl]pyrrolo[2,1-f][1,2,4]triazin-4-yl]-2-methyl-phenyl]methyl]-5-methoxy-pyridine-2-carboxamide]"

# Reference: patent US20240287076A1, “COMPOUNDS FOR TARGETING DEGRADATION OF BRUTON'S TYROSINE KINASE” (BIOGEN MA INC., priority 2021, published 2024)
